How the values were obtained:
Aromatase [1] = molecular target: T1, Aromatase (Rattus norvegicus, UniProt P22443); test: In vivo reduction in serum estradiol in PMSG-primed rats after 2 hr at 5 mg/kg oral dose; format: functional, organism-based; set-up: dose 5 mg/kg, route oral; scale not given: the % may be the effect or the level left
T1 sequence (P22443 whole entry): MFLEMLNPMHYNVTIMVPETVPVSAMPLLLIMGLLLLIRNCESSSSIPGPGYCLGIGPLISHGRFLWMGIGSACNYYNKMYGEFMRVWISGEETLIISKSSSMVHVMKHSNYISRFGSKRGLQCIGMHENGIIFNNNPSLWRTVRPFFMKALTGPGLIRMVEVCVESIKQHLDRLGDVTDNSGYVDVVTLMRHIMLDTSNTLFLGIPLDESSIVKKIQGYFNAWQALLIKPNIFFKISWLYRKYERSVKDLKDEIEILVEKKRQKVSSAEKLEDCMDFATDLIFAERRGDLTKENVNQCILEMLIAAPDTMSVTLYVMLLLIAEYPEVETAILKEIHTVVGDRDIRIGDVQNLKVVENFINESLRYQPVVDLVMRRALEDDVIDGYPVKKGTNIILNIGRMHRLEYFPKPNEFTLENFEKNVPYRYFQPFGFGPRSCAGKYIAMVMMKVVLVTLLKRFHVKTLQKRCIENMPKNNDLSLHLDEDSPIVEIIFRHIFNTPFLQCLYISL

Aromatase [2] = molecular target: T1, Aromatase; test: In vivo reduction in serum estradiol in PMSG-primed rats after 6 hr at 5 mg/kg oral dose; format: functional, organism-based; set-up: dose 5 mg/kg, route oral; scale not given: the % may be the effect or the level left
Aromatase [3] = molecular target: Aromatase (Homo sapiens, UniProt P11511); test: In vitro inhibition to cytochrome P450 19A1 assayed using human placental microsomes; set-up: species or system Placenta

SMILES	Control (Aromatase [1])	Control (Aromatase [2])	IC50 (Aromatase [3])
C=CSCC[C@]12CCC(=O)C=C1CCC1C2=CC[C@]2(C)C(=O)CCC12 (stereo partly drawn)	25%	24%	50 nM
C[C@]12CC=C3C(CCC4=CC(=O)CC[C@@]43CC[Se]c3ccccc3)C1CCC2=O (stereo partly drawn)	–	–	> 1000 nM
CSC(=O)C[C@]12CCC(=O)C=C1CCC1C2CC[C@]2(C)C(=O)CCC12 (stereo partly drawn)	37%	49%	42 nM
C[C@]12CC=C3C(CCC4=CC(=O)CC[C@@]43CCSCF)C1CCC2=O (stereo partly drawn)	31%	41%	50 nM
CCSCC[C@]12CCC(=O)C=C1CCC1C2=CC[C@]2(C)C(=O)CCC12 (stereo partly drawn)	–	–	870 nM
C[C@]12CC=C3C(CCC4=CC(=O)CC[C@@]43CCSCCS)C1CCC2=O (stereo partly drawn)	–	–	> 1000 nM
CS[C@]12CCC(=O)C=C1CCC1C2=CC[C@]2(C)C(=O)CCC12 (stereo partly drawn)	–	–	7400 nM
C[C@]12CC=C3C(CCC4=CC(=O)CC[C@@]43CCSSc3ccc([N+](=O)[O-])cc3[N+](=O)[O-])C1CCC2=O (stereo partly drawn)	27%	32%	> 1000 nM
COCC[C@]12CCC(=O)C=C1CCC1C2=CC[C@]2(C)C(=O)CCC12 (stereo partly drawn)	–	–	10000 nM
CN(C)CC[C@]12CCC(=O)C=C1CCC1C2=CC[C@]2(C)C(=O)CCC12 (stereo partly drawn)	–	–	> 10000 nM
C[C@]12CC=C3C(CCC4=CC(=O)CC[C@@]43CCSC#N)C1CCC2=O (stereo partly drawn)	44%	38%	> 1000 nM
C[C@]12CC=C3C(CCC4=CC(=O)CC[C@@]43CCI)C1CCC2=O (stereo partly drawn)	–	–	> 10000 nM
C[C@]12CC=C3C(CCC4=CC(=O)CC[C@@]43CCSC3CC3)C1CCC2=O (stereo partly drawn)	–	–	> 1000 nM
C[C@]12CC=C3C(CCC4=CC(=O)CC[C@@]43CCSC(F)F)C1CCC2=O (stereo partly drawn)	–	–	> 1000 nM
CCSC(C[C@]12CCC(=O)C=C1CCC1C2=CC[C@]2(C)C(=O)CCC12)SCC (stereo partly drawn)	–	–	> 1000 nM
CSCC[C@]12CCC(=O)C=C1CCC1C2=CC[C@]2(C)C(=O)CCC12 (stereo partly drawn)	51%	50%	12 nM
C[C@]12CC=C3C(CCC4=CC(=O)CC[C@@]43CCSSc3ccccc3)C1CCC2=O (stereo partly drawn)	43%	62%	> 1000 nM
CC(=O)SCC[C@]12CCC(=O)C=C1CCC1C2=CC[C@]2(C)C(=O)CCC12 (stereo partly drawn)	21%	10%	> 10000 nM
C[C@]12CC=C3C(CCC4=CC(=O)CC[C@@]43CCSc3ccccc3)C1CCC2=O (stereo partly drawn)	–	–	400 nM
CSCC[C@]12CCC(=O)C=C1CCC1C2CC[C@]2(C)C(=O)CCC12 (stereo partly drawn)	11%	16%	22 nM
C#CSCC[C@]12CCC(=O)C=C1CCC1C2=CC[C@]2(C)C(=O)CCC12 (stereo partly drawn)	–	–	330 nM
CSC(C[C@]12CCC(=O)C=C1CCC1C2=CC[C@]2(C)C(=O)CCC12)SC (stereo partly drawn)	18%	13%	> 1000 nM
C=CCSCC[C@]12CCC(=O)C=C1CCC1C2=CC[C@]2(C)C(=O)CCC12 (stereo partly drawn)	–	–	270 nM
CSSCC[C@]12CCC(=O)C=C1CCC1C2=CC[C@]2(C)C(=O)CCC12 (stereo partly drawn)	7%	23%	> 1000 nM
CSCSCC[C@]12CCC(=O)C=C1CCC1C2=CC[C@]2(C)C(=O)CCC12 (stereo partly drawn)	–	–	570 nM
C[C@]12CC=C3C(CCC4=CC(=O)CC[C@@]43CCSCCO)C1CCC2=O (stereo partly drawn)	–	–	> 1000 nM
C#CCSCC[C@]12CCC(=O)C=C1CCC1C2=CC[C@]2(C)C(=O)CCC12 (stereo partly drawn)	5%	25%	1000 nM
C[C@]12CC=C3C(CCC4=CC(=O)CC[C@@]43CCOS(C)(=O)=O)C1CCC2=O (stereo partly drawn)	–	–	> 10000 nM
CSCCCC12CCC(=O)C=C1CCC1C2=CC[C@]2(C)C(=O)CCC12 (single isomer, unassigned)	–	–	> 10000 nM

— ChEMBL document CHEMBL1129479, “Structure-activity relationships of a new family of steroidal aromatase inhibitors. 1. Synthesis and evaluation of a series of analogs related to 19-[(methylthio)methyl]androstenedione (RU54115)” (J Med Chem, 1996)
